Patent US11479814B2, “Compounds for use in PCR systems and applications thereof” (LIFE TECHNOLOGIES CORPORATION, priority 2013, dated 2022)

Test system: polymerase
Assay: Amplification plots and Cq of gene targets, Dt4 compared with Tween 20 and Brij-58
Format: biochemical
Settings: B2M, GAPDH, RPLPO; FIGS. 16-18
Text: All amplification plots shown herein graphically represent target nucleic acid amplification as ΔRn (y-axis) as a function of cycle number (x-axis).
FIGS. 7A through 7D and FIGS. 8A through 8D provide a comparison between Dt4 and Tween® 20 in amplifying four different targets (B2M, GAPDH, RPLPO, and GUSB).
FIG. 9 provides a comparison between Dt4 and Tween® 20 in amplifying various different targets.
FIGS. 11A and 11B, FIGS. 12A and 12B, FIGS. 13A and 13B, FIGS. 14A and 14B, FIGS. 15A and 15B show amplification plots comparing the activity of Dt4 to Brij-58 and Tween® 20 at various concentrations in amplifying HPRT1 or PPIA.
FIGS. 16-18 illustrate that Dt4 may be used at a lower concentration than Tween® 20 in various reactions (e.g., 0.002% Dt4 compared to 0.01% Tween® 20).

Substance: Tween® 20
- concentration used in amplification reactions: 0.01%
